These results are taken from ChEMBL document CHEMBL1146903, “Modification of the clozapine structure by parallel synthesis” (Bioorg Med Chem Lett, 2006).

One experiment addresses D(1A) dopamine receptor (Homo sapiens, UniProt P21728). In words: Displacement of [3H]SCH 23390 from dopamine D1 receptor expressed in CHO cells. It is filed as cell-based. For orientation: Displacement assays read how much labelled ligand stays bound in the presence of the test substance.
Another experiment has as its target D(2) dopamine receptor (Homo sapiens, UniProt P14416). In words: Displacement of [3H]methylspiperone from dopamine D2 receptor expressed in CHO cells. Type of experiment: cell-based.

Chain of D(2) dopamine receptor (P14416 whole entry): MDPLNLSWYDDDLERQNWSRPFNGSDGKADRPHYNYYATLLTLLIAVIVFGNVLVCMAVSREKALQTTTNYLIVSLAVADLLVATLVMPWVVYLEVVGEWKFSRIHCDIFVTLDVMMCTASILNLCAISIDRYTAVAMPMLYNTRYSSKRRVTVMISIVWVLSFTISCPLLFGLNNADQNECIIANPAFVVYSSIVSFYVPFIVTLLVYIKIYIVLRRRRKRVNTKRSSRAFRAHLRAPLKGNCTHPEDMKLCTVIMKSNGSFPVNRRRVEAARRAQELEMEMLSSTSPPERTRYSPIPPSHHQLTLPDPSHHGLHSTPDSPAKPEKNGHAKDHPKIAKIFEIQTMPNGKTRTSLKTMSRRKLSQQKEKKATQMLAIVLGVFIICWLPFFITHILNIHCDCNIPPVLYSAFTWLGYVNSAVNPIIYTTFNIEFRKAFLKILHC
Chain of D(1A) dopamine receptor (P21728 whole entry): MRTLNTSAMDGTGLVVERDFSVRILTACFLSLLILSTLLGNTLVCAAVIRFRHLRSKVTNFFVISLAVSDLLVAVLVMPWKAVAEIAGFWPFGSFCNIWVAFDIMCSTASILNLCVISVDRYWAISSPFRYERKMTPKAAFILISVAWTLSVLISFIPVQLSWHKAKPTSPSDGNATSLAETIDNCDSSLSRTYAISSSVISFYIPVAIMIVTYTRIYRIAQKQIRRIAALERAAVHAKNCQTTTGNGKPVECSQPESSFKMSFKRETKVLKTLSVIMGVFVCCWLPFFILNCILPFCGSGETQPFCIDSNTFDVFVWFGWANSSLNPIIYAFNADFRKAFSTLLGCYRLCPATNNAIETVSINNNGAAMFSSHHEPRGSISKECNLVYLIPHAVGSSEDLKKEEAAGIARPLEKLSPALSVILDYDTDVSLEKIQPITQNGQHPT

`Cc1ccc(S(=O)(=O)N2c3ccc(Cl)cc3N=C(N3CCN(C)CC3)c3ccccc32)cc1`: the Ki (commonly a measure of affinity in units of concentration, obtained from inhibition or displacement) was determined as 65 nM at D(1A) dopamine receptor and 338 nM on D(2) dopamine receptor.

`COc1ccccc1CNN1c2ccc(Cl)cc2N=C(N2CCN(C)CC2)c2ccccc21`: the Ki amounted to 60 nM on D(1A) dopamine receptor and 202 nM at D(2) dopamine receptor.

As for `Clc1ccc2c(c1)N=C(N1CCN(Cc3cccc4c3OCO4)CC1)c1ccccc1N2`, the Ki turned out to be 637 nM at D(1A) dopamine receptor and 80 nM on D(2) dopamine receptor.

For `CN1CCN(C2=Nc3cc(Cl)ccc3N(NC(=O)c3ccc(C#N)cc3)c3ccccc32)CC1`, the inhibition constant Ki on D(1A) dopamine receptor was 68 nM; on D(2) dopamine receptor it was over 2000 nM.

Consider `CN1CCN(C2=Nc3cc(Cl)ccc3N(C(=O)Nc3cc(Cl)cc(Cl)c3)c3ccccc32)CC1`, for which the inhibition constant (Ki) on D(1A) dopamine receptor worked out at 175 nM; on D(2) dopamine receptor, 3900 nM.

Consider `CN1CCN(C2=Nc3cc(Cl)ccc3N(NC(=O)c3cccc(C#N)c3)c3ccc(Cl)cc32)CC1`, for which the figures for the inhibition constant Ki on D(1A) dopamine receptor and on D(2) dopamine receptor were 47 nM and 175 nM, respectively.

Turning to `CN1CCN(C2=Nc3cc(Cl)ccc3N(NC(=O)c3cc(F)c(F)c(F)c3F)c3ccccc32)CC1`, the Ki at D(1A) dopamine receptor worked out at 32 nM; on D(2) dopamine receptor, 1280 nM.

With `CN1CCN(C2=Nc3cc(Cl)ccc3N(NC(=O)c3ccc4c(c3)OCO4)c3ccc(Cl)cc32)CC1`, the inhibition constant (Ki) at D(1A) dopamine receptor came out at 130 nM; on D(2) dopamine receptor, 286 nM.

As to `COc1cccc(OC)c1C(=O)NN1c2ccc(Cl)cc2N=C(N2CCN(C)CC2)c2cc(Cl)ccc21`, the Ki at D(1A) dopamine receptor turned out to be 11 nM; at D(2) dopamine receptor, 97 nM.

Turning to `CN1CCN(C2=Nc3cc(Cl)ccc3N(NC(=O)c3cccc(C#N)c3)c3ccccc32)CC1`, the Ki at D(1A) dopamine receptor is 62 nM; at D(2) dopamine receptor, 3650 nM.

`CN1CCN(C2=Nc3cc(Cl)ccc3N(NC(=O)c3ccccc3Cl)c3ccccc32)CC1`: the inhibition constant Ki on D(1A) dopamine receptor amounted to 4.1 nM. This counts as single-digit nanomolar.

Turning to `CN1CCN(C2=Nc3cc(Cl)ccc3N(NC(=O)c3ccccc3I)c3ccc(Cl)cc32)CC1`, the inhibitory constant (Ki) came to 12 nM at D(1A) dopamine receptor and 36 nM at D(2) dopamine receptor.

For the compound `CC(C)CN1CCN(C2=Nc3cc(Cl)ccc3N(NC(=O)c3ccccc3Cl)c3ccccc32)CC1`, the inhibition constant Ki on D(1A) dopamine receptor was 81 nM; at D(2) dopamine receptor, over 3000 nM.

For the compound `CCC(CC)CN1CCN(C2=Nc3cc(Cl)ccc3N(NC(=O)c3ccccc3Cl)c3ccccc32)CC1`, the values for the Ki on D(1A) dopamine receptor and on D(2) dopamine receptor were 505 nM and over 3000 nM, respectively.

As to `COc1cc(C(=O)NN2c3ccc(Cl)cc3N=C(N3CCN(C)CC3)c3cc(Cl)ccc32)cc(OC)c1OC`, the values for the Ki at D(1A) dopamine receptor and at D(2) dopamine receptor were 16 nM and 267 nM, respectively.

Regarding `CN1CCN(C2=Nc3ccccc3N(NC(=O)c3cc(F)c(F)c(F)c3F)c3ccc(Cl)cc32)CC1`, the inhibition constant (Ki) at D(1A) dopamine receptor came to 156 nM; at D(2) dopamine receptor, 759 nM.

Turning to `CN1CCN(C2=Nc3ccccc3N(NC(=O)c3cc(F)ccc3C(F)(F)F)c3ccc(Cl)cc32)CC1`, the figures for the Ki on D(1A) dopamine receptor and at D(2) dopamine receptor were 22 nM and 421 nM, respectively.

On to `Fc1ccc(CN2CCN(C3=Nc4cc(Cl)ccc4Nc4ccccc43)CC2)c(F)c1`, for which the inhibition constant Ki was found to be 835 nM on D(1A) dopamine receptor and 177 nM at D(2) dopamine receptor.

Take `CN1CCN(C2=Nc3ccccc3N(NC(=O)c3ccc(C#N)cc3)c3ccc(Cl)cc32)CC1`: the figures for the Ki at D(1A) dopamine receptor and on D(2) dopamine receptor were 64 nM and 1970 nM, respectively.

Take `CN1CCN(C2=Nc3ccccc3N(NC(=O)c3cccc(C#N)c3)c3ccc(Cl)cc32)CC1`: the figures for the Ki at D(1A) dopamine receptor and on D(2) dopamine receptor were 99 nM and 1190 nM, respectively.

As for `COc1cccc(C(=O)NN2c3ccccc3N=C(N3CCN(C)CC3)c3cc(Cl)ccc32)c1`, the Ki on D(1A) dopamine receptor amounted to 86 nM; on D(2) dopamine receptor, 1380 nM.

Regarding `CCCN1CCN(C2=Nc3cc(Cl)ccc3N(NC(=O)c3ccccc3Cl)c3ccccc32)CC1`, the Ki on D(1A) dopamine receptor is 26 nM; at D(2) dopamine receptor it was 409 nM.

Consider `CN1CCN(C2=Nc3cc(Cl)ccc3N(NC(=O)c3cc(F)c(F)c(F)c3F)c3ccc(Cl)cc32)CC1`, for which the inhibition constant (Ki) at D(1A) dopamine receptor turned out to be 98 nM; on D(2) dopamine receptor, 270 nM.

Consider `CN1CCN(C2=Nc3ccccc3N(NC(=O)c3ccc4c(c3)OCO4)c3ccc(Cl)cc32)CC1`, for which the results for the Ki on D(1A) dopamine receptor and at D(2) dopamine receptor were 83 nM and 1260 nM, respectively.

On to `Clc1ccc2c(c1)N=C(N1CCN(Cc3ccc4c(c3)OCCO4)CC1)c1ccccc1N2`, for which the inhibition constant (Ki) at D(1A) dopamine receptor was found to be 583 nM; at D(2) dopamine receptor, 29 nM.

On to `CN1CCN(C2=Nc3cc(Cl)ccc3N(NC(=O)c3ccc4c(c3)OCO4)c3ccccc32)CC1`, for which the results for the inhibition constant Ki at D(1A) dopamine receptor and at D(2) dopamine receptor were 56 nM and 828 nM, respectively.

On to `CN1CCN(C2=Nc3ccccc3N(NC(=O)c3ccccc3I)c3ccc(Cl)cc32)CC1`, for which the Ki on D(1A) dopamine receptor came to 7 nM; at D(2) dopamine receptor, 231 nM.

Consider `COc1cccc(OC)c1C(=O)NN1c2ccccc2N=C(N2CCN(C)CC2)c2cc(Cl)ccc21`, for which the figures for the inhibition constant Ki on D(1A) dopamine receptor and on D(2) dopamine receptor were 6 nM and 197 nM, respectively.

Consider `O=C(NN1c2ccc(Cl)cc2N=C(N2CCN(Cc3ccccc3F)CC2)c2ccccc21)c1ccccc1Cl`, for which the inhibitory constant (Ki) at D(1A) dopamine receptor is 503 nM; on D(2) dopamine receptor, over 2000 nM.

Take `FC(F)(F)Oc1cccc(CN2CCN(C3=Nc4cc(Cl)ccc4Nc4ccccc43)CC2)c1`: the Ki at D(1A) dopamine receptor stood at 3800 nM; on D(2) dopamine receptor, 3.4 nM.

With `CCN1CCN(C2=Nc3cc(Cl)ccc3N(NC(=O)c3ccccc3Cl)c3ccccc32)CC1`, the figures for the Ki at D(1A) dopamine receptor and on D(2) dopamine receptor were 54 nM and 709 nM, respectively.

At D(2) dopamine receptor, `COc1ccc(C(=O)NN2c3ccc(Cl)cc3N=C(N3CCN(C)CC3)c3ccccc32)cc1` returned a Ki of over 3000 nM.

Take `CN1CCN(C2=Nc3cc(Cl)ccc3N(NC(=O)c3cccnc3)c3ccccc32)CC1`: the inhibition constant (Ki) came out at 85 nM on D(1A) dopamine receptor and 12700 nM at D(2) dopamine receptor.

As for `O=C(NN1c2ccc(Cl)cc2N=C(N2CCN(CC3CCCCC3)CC2)c2ccccc21)c1ccccc1Cl`, the inhibition constant Ki at D(1A) dopamine receptor is 294 nM; on D(2) dopamine receptor, over 3000 nM.

Regarding `O=C(NN1c2ccc(Cl)cc2N=C(N2CCN(Cc3cccc4c3OCO4)CC2)c2ccccc21)c1ccccc1Cl`, the inhibition constant (Ki) was 571 nM at D(1A) dopamine receptor and over 2000 nM on D(2) dopamine receptor.

As to `COc1cc(C(=O)NN2c3ccccc3N=C(N3CCN(C)CC3)c3cc(Cl)ccc32)cc(OC)c1OC`, the Ki was 20 nM at D(1A) dopamine receptor and 3230 nM on D(2) dopamine receptor.

As to `Cc1ccccc1S(=O)(=O)N1c2ccc(Cl)cc2N=C(N2CCN(C)CC2)c2ccccc21`, the Ki at D(1A) dopamine receptor was 71 nM; on D(2) dopamine receptor it was 63 nM.

Turning to `O=C(NN1c2ccc(Cl)cc2N=C(N2CCN(Cc3ccc(F)cc3F)CC2)c2ccccc21)c1ccccc1Cl`, the Ki on D(1A) dopamine receptor was 886 nM; at D(2) dopamine receptor it was over 3000 nM.

As for `CN1CCN(C2=Nc3cc(Cl)ccc3N(NC(=O)c3ccccc3Br)c3ccccc32)CC1`, the Ki at D(1A) dopamine receptor came to 16 nM; on D(2) dopamine receptor, 792 nM.

Turning to `Cc1ccc(CN2CCN(C3=Nc4cc(Cl)ccc4Nc4ccccc43)CC2)c(C)c1`, the inhibition constant Ki came out at 482 nM at D(1A) dopamine receptor and 65 nM on D(2) dopamine receptor.

In the case of `CN1CCN(C2=Nc3cc(Cl)ccc3N(NC(=O)c3cc(F)ccc3C(F)(F)F)c3ccc(Cl)cc32)CC1`, the inhibition constant (Ki) on D(1A) dopamine receptor was 24 nM; at D(2) dopamine receptor, 69 nM.

For `Cc1ccccc1C(=O)N1c2ccc(Cl)cc2N=C(N2CCN(C)CC2)c2ccccc21`, the Ki on D(1A) dopamine receptor was found to be 1230 nM; at D(2) dopamine receptor, 4930 nM.

On to `CN1CCN(C2=Nc3cc(Cl)ccc3N(NC(=O)c3ccc(C#N)cc3)c3ccc(Cl)cc32)CC1`, for which the inhibition constant Ki amounted to 51 nM on D(1A) dopamine receptor and 194 nM on D(2) dopamine receptor.

Regarding `O=C(NN1c2ccc(Cl)cc2N=C(N2CCN(Cc3cccc(OC(F)(F)F)c3)CC2)c2ccccc21)c1ccccc1Cl`, the Ki at D(1A) dopamine receptor was 2570 nM; on D(2) dopamine receptor, over 3000 nM.

`O=C(NN1c2ccc(Cl)cc2N=C(N2CCN(Cc3ccc4c(c3)OCCO4)CC2)c2ccccc21)c1ccccc1Cl`: the values for the Ki on D(1A) dopamine receptor and on D(2) dopamine receptor were 238 nM and over 2000 nM, respectively.

For `COc1ccccc1C(=O)NN1c2ccc(Cl)cc2N=C(N2CCN(C)CC2)c2ccccc21`, the inhibitory constant (Ki) on D(1A) dopamine receptor turned out to be 13 nM; on D(2) dopamine receptor, 1130 nM.

With `CC(C)N1CCN(C2=Nc3cc(Cl)ccc3N(NC(=O)c3ccccc3Cl)c3ccccc32)CC1`, the Ki at D(1A) dopamine receptor stood at 191 nM; on D(2) dopamine receptor it was 998 nM.

For `O=C(NN1c2ccc(Cl)cc2N=C(N2CCN(Cc3cccc4c3OC(F)(F)O4)CC2)c2ccccc21)c1ccccc1Cl`, the Ki at D(1A) dopamine receptor is 4750 nM; on D(2) dopamine receptor, over 3000 nM.

Take `COc1cc(C(=O)NN2c3ccc(Cl)cc3N=C(N3CCN(C)CC3)c3ccccc32)cc(OC)c1OC`: the inhibition constant (Ki) at D(1A) dopamine receptor came to 31 nM; at D(2) dopamine receptor it was 5560 nM.

As to `Cc1ccccc1C(=O)NN1c2ccc(Cl)cc2N=C(N2CCN(C)CC2)c2cc(Cl)ccc21`, the Ki stood at 2 nM on D(1A) dopamine receptor and 175 nM at D(2) dopamine receptor.

For the compound `CN1CCN(C2=Nc3cc(Cl)ccc3N(NC(=O)c3cccc(C(F)(F)F)c3)c3ccccc32)CC1`, the Ki on D(1A) dopamine receptor was 148 nM; at D(2) dopamine receptor, 1360 nM.

Turning to `COc1cccc(C(=O)NN2c3ccc(Cl)cc3N=C(N3CCN(C)CC3)c3cc(Cl)ccc32)c1`, the Ki worked out at 44 nM at D(1A) dopamine receptor and 139 nM on D(2) dopamine receptor.

In the case of `CN1CCN(C2=Nc3cc(Cl)ccc3N(NC(=O)c3ccncc3)c3ccccc32)CC1`, the inhibition constant (Ki) at D(1A) dopamine receptor is 86 nM; at D(2) dopamine receptor, 28400 nM.

On to `CN1CCN(C2=Nc3cc(Cl)ccc3N(NC(=O)c3cccc(F)c3F)c3ccccc32)CC1`, for which, at D(1A) dopamine receptor, the Ki was determined as 16 nM. This counts as double-digit nanomolar.

`FC1(F)Oc2cccc(CN3CCN(C4=Nc5cc(Cl)ccc5Nc5ccccc54)CC3)c2O1`: the inhibitory constant (Ki) on D(1A) dopamine receptor is 3110 nM; on D(2) dopamine receptor, 8 nM.

On to `Cc1ccccc1C(=O)NN1c2ccccc2N=C(N2CCN(C)CC2)c2cc(Cl)ccc21`, for which the inhibition constant Ki was found to be 48 nM at D(1A) dopamine receptor and 1570 nM on D(2) dopamine receptor.

Consider `CC(C)(C)CN1CCN(C2=Nc3cc(Cl)ccc3N(NC(=O)c3ccccc3Cl)c3ccccc32)CC1`, for which the Ki was 447 nM on D(1A) dopamine receptor and over 3000 nM on D(2) dopamine receptor.

On to `Cc1ccc(CN2CCN(C3=Nc4cc(Cl)ccc4N(NC(=O)c4ccccc4Cl)c4ccccc43)CC2)c(C)c1`, for which the inhibitory constant (Ki) at D(1A) dopamine receptor is 1100 nM; at D(2) dopamine receptor, over 3000 nM.

As to `CN1CCN(C2=Nc3cc(Cl)ccc3N(NC(=O)c3ccc(F)cc3C(F)(F)F)c3ccccc32)CC1`, the Ki on D(1A) dopamine receptor turned out to be 49 nM; at D(2) dopamine receptor, 1620 nM.
